Test systems include HCT-116 colon; HOP-92 NSCLC; LOX IMVI melanoma; M14 melanoma; NCI-H226 lung; NCI-H522 lung; SN12C renal; SNB-19 CNS; T-47D breast; U251 CNS.
Common to all, as to assay: NCI anticancer screen, dose series, 48 h

Several values for one entry are separate records, joined by “and”; a condition that tells them apart may be missing. Identical values can stand only once.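 96-well plates; 48 h exposure; 5 concentrations. Endpoints by linear interpolation between flanking doses. Not reached: highest tested concentration assigned. GI50: concentration for 50% inhibition of growth. TGI: total growth inhibition.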

In the case of `Clc1ccc2c(c1)N(CCCN1CCCC1)c1ccccc1S2`, the GI50 in the assay on HCT-116 colon is 3.19 µM; with HOP-92 NSCLC, 3.94 µM; in the assay with LOX IMVI melanoma, 2500 nM; with M14 melanoma it was 1920 nM; in the assay with NCI-H226 lung, 19.4 µM; in the assay on NCI-H522 lung, 2230 nM. In addition, the GI50 with SN12C renal is 11.7 µM; with SNB-19 CNS, 9.63 µM; in the assay on T-47D breast, 12.4 µM; with U251 CNS it was 6.96 µM. Moreover, the TGI in the assay on HCT-116 colon was found to be 12.1 µM; in the assay with HOP-92 NSCLC it was 16.2 µM; in the assay with LOX IMVI melanoma, 7.14 µM; with M14 melanoma, 3.97 µM; in the assay on NCI-H226 lung, 48.3 µM; with NCI-H522 lung, 7.11 µM. Further, the TGI with SN12C renal was determined as 27.3 µM; in the assay with SNB-19 CNS it was 28.1 µM; with T-47D breast, 28.5 µM; in the assay on U251 CNS, 20.5 µM.
For `CN(C)CCNC(=O)C(C)(C)Oc1ccc(C(=O)c2ccc(Cl)cc2)cc1Cl`, the TGI in the assay with HCT-116 colon was 20 µM; in the assay with HOP-92 NSCLC, 18.1 µM; in the assay with LOX IMVI melanoma, 20.1 µM; in the assay on M14 melanoma, 3.67 µM and 5.99 µM; in the assay on NCI-H226 lung it was 29 µM; in the assay on NCI-H522 lung, 28.2 µM. Also, the TGI in the assay on SN12C renal was 26.7 µM; in the assay on SNB-19 CNS, 26 µM; in the assay on T-47D breast, 24.4 µM; in the assay on U251 CNS, 20 µM. The GI50 in the assay on LOX IMVI melanoma was 39.2 nM; with M14 melanoma, 1820 nM; in the assay on SN12C renal, 3.59 µM; in the assay on T-47D breast it was 5.87 µM.
For the molecule `N#Cc1ccccc1NC(=O)C(=O)c1c(O)c2ccccc2oc1=O`, the TGI in the assay on HCT-116 colon, with HOP-92 NSCLC, in the assay with LOX IMVI melanoma, with M14 melanoma, with NCI-H226 lung and in the assay with NCI-H522 lung was > 100 µM each time. For the same molecule, the TGI in the assay with SN12C renal, in the assay on SNB-19 CNS, in the assay with T-47D breast and in the assay with U251 CNS was > 100 µM throughout.
In the case of `Cl.Fc1c[c-]c(-c2ccccn2)c(F)c1.[Pt].c1ccc(P(c2ccccc2)C([PH+](c2ccccc2)c2ccccc2)[PH+](c2ccccc2)c2ccccc2)cc1`, the GI50 in the assay with HCT-116 colon is 2.72 µM; in the assay on HOP-92 NSCLC it was 1.7 µM; with LOX IMVI melanoma, 3350 nM; in the assay with M14 melanoma, 3130 nM; in the assay on NCI-H226 lung it was 2.78 µM; in the assay with NCI-H522 lung it was 2620 nM. In addition, the GI50 was 2.91 µM in the assay with SN12C renal, 4.88 µM with SNB-19 CNS, 2.25 µM with T-47D breast and 3.23 µM with U251 CNS. Further, the TGI was determined as 12.3 µM with HCT-116 colon; 5.62 µM in the assay on HOP-92 NSCLC; 13.5 µM in the assay with LOX IMVI melanoma; 53 µM in the assay with M14 melanoma; 32.8 µM in the assay with NCI-H226 lung; 9.86 µM in the assay on NCI-H522 lung. For the same molecule, the TGI is 15.4 µM in the assay on SN12C renal, > 100 µM in the assay on SNB-19 CNS, 8.5 µM with T-47D breast and 13.6 µM in the assay on U251 CNS.
As for `C[C@H](Nc1ncnc2nc[nH]c12)c1cc2ccc(F)cc2nc1-c1ccccn1`, the GI50 in the assay on HCT-116 colon was > 100 µM; in the assay on HOP-92 NSCLC it was 3.43 µM; in the assay with LOX IMVI melanoma, > 86200 nM; in the assay with M14 melanoma it was > 100000 nM; in the assay on NCI-H226 lung, > 89.4 µM; with NCI-H522 lung it was > 54100 nM. Moreover, the GI50 was 57.8 µM with SN12C renal, > 100 µM with SNB-19 CNS, 17.2 µM in the assay with T-47D breast and > 100 µM in the assay with U251 CNS. For the same molecule, the TGI in the assay on HCT-116 colon, in the assay with HOP-92 NSCLC, with LOX IMVI melanoma, in the assay with M14 melanoma, with NCI-H226 lung and with NCI-H522 lung was > 100 µM throughout. The TGI is > 100 µM in the assay with SN12C renal, > 100 µM in the assay with SNB-19 CNS, 99.5 µM in the assay on T-47D breast and > 100 µM in the assay with U251 CNS.
